Measurements as given in paper PMC7247319, “The mitochondria-targeted peptide SS-31 binds lipid bilayers and modulates surface electrostatics as a key component of its mechanism of action” (The Journal of Biological Chemistry, 2020).
Where a SMILES comes first, the peptide text is derived from it. [ ]: non-standard residue; d: D form. Dmt = Cc1cc(O)cc(C)c1C[C@H](N)C(=O)O

Tested on: mitoplasts from WT and Δcrd1 yeast
Assay: ANS-detected surface potential of mitoplasts
Parameters: species or system Saccharomyces cerevisiae
Source text: Figure 6. Interaction of SS-31 with isolated mitochondria. A, [ald]SS-31 binding with differing phospholipid composition. Left, percentages of total phospholipid of each species (phosphatidylcholine (PC), phosphatidylethanolamine (PE), cardiolipin (CL), monolyso-CL (MLCL), phosphatidylglycerol (PG), phosphatidic acid (PA), phosphatidylinositol (PI), phosphatidylserine (PS), and lysophosphatidylcholine (LPC)) in mitochondria from WT, Δtaz1, and Δcrd1 strains measured by shotgun lipidomics. Right, binding of 1 μM [ald]SS-31 with mitochondria isolated from WT, Δtaz1, and Δcrd1 yeast strains quantified as the mean fractional increase (F/F0) in aladan emission with increasing mitochondria concentration for fully energized mitochondria. Inset, relative binding of [ald]SS-31 to mitochondria (0.2 mg ml^−1) in the presence or absence of 1 μM valinomycin (val) as indicated. Values shown are means ± S.D. (error bars) (n = 3). B, comparison of [ald]SS-31 binding to mitochondria and model membranes. […]
The final goal of these experiments was to evaluate the effect of SS peptides on the surface electrostatic properties of mitochondrial membranes. […] We therefore compared the titration of mitoplasts with SS-31 and mono- and divalent cations (K^+ and Ca^2+, respectively) to evaluate the relative effects of each species on ANS-detected ψs (Fig. 6C). […]

Structure (SMILES): Cc1cc(O)cc(C)c1C[C@H](NC(=O)[C@H](N)CCCNC(=N)N)C(=O)N[C@@H](CCCCN)C(=O)N[C@@H](Cc1ccccc1)C(N)=O [SS-31, D-Arg-2′6′-dimethyl-Tyr-Lys-Phe-NH2] (H-[dR][Dmt]KF-NH2)
- effect of peptide addition prior to CaCl2 titration on Ca2+-mediated decrease in ψs (WT mitoplasts, 20 μM SS-31 added before CaCl2): strongly blunted the effects of Ca^2+ on surface potential
- effect on ANS fluorescence (ψs) of mitoplasts (titration of WT and Δcrd1 mitoplasts, n = 3): increase in ANS fluorescence
